The values that follow come from US20240327506A1, “METHODS AND COMPOSITION FOR THE SELECTIVE ENHANCEMENT OF ADOPTIVE CELL THERAPY” (MaineHealth, priority 2023, published 2024).

The test system of this assay is primary CD8+ T-cells from melanoma bearing C57BL/6 mice. The assay is described as follows: Transwell migration of primary CD8+ T-cells through collagen type-IV. It is filed as cell-based, murine. The following applies: peptide. The method, then: FIGS. 4A-4H. […] Briefly, membranes from transwell migration chambers were coated with either native collagen type-IV or denatured collagen type-IV. T-cell variants were incubated with non-specific control peptide CP, or the RGDKGE (SEQ ID NO: 1)-containing collagen peptide (P2) and seed on the coated transwell membranes. T-cells were allowed to migrate in the presence or absence of SDF-1 added to the lower chamber for approximately 1.5 hours. Cell migration was quantified by counting the number of crystal violet stained cells that had migrated through to the underside of the coated membrane. FIG. 4A. Jurkat T-cell migration through denatured collagen type-IV in the presence of non-specific control peptide CP or RGDKGE (SEQ ID NO: 1)-containing collagen peptide P2 with SDF-1. FIG. 4B. Jurkat T-cell migration through native collagen type-IV in the presence of non-specific control peptide CP or RGDKGE (SEQ ID NO: 1)-containing collagen peptide P2 with SDF-1. FIG. 4C. Cem/C1 T-cell migration through denatured collagen type-IV in the presence of non-specific control peptide CP or RGDKGE (SEQ ID NO: 1)-containing collagen peptide P2 with SDF-1. FIG. 4D. […]
FIGS. 5A-5F. […] Cell migration was quantified by counting the number of crystal violet stained cells that had migrated through to the underside of the coated membrane. […]

Consider “QGPRGDKGE (CQGPRGDKGEC; Synthetic: Synthetic collagen RGD containing peptide P-2) [Peptide P2, synthetic version of the soluble RGDKGE-containing collagen peptide]”, for which the “primary murine CD8+ T-cell migration” value (denatured collagen type-IV, SDF-1, compared to CP) was “selectively inhibited” and the “primary murine CD8+ T-cell migration” value (native collagen type-IV, SDF-1) is “neither the RGDKGE (SEQ ID NO: 1) collagen peptide P2, nor the non-specific control peptide CP had any significant impact”.
